# Data as given in patent US20200170269A1, “ALLULOSE-CONTAINING COMPOSITION FOR PROMOTING EXCRETION OF VEGETABLE LIPIDS FROM THE BODY” (CJ CHEILJEDANG CORPORATION, priority 2016, published 2020).
# Legend:
# Type in all cases: in vivo
# [1] = Body weight of C57BL/6J mice fed a high-fat diet containing vegetable lipids (palm oil, olive oil, soybean oil, margarine) with or without 5% allulose for 8 weeks; settings: with allulose (5%), mean (SE in cell below); for Initial body weight: 0th week
# Source text: Twenty C57BL/6J mice (male, 4-week-old) were purchased from The Jackson Laboratory (USA) and used. After the animals were acclimated to the feeding environment with a lab-chow diet (Purina Co., USA) for 4 weeks, they were divided by a randomized block design into two groups: a negative control group without the ingestion of allulose (n=10/one kind of lipid); and a test group with the ingestion of allulose (n=10/one kind of lipid) and they were fed with the diets for 8 weeks. For the negative control group, the high-fat diet was applied to the AIN-76 diet, and the vegetable lipids [palm oil ([…], Malaysia), olive oil (CJ CheilJedang Corp., South Korea), soybean oil (CJ CheilJedang Corp., South Korea), margarine (Ottogi Foods Co., Ltd., 'Corn margarine', raw materials: consisted of 80 wt % of vegetable lipids (palm olein oil, palm stearin oil, coconut oil, corn oil)] were included. For the test group, among the ingredients of the diet for the negative control group, 5 wt % of sucrose was replaced with allulose (crystalline allulose, 98 wt % of allulose based on dry solids, CJ CheilJedang Corporation) (Table 1). All the animal experiments were carried out under the approval of the Ethics Committee for Animal Studies at Kyungpook National University, South Korea (approval no. KNU-2013-18). All groups were allowed to ingest the iso-energetic diet of the same level by pair feeding based on the test group so as to exclude the calorie-reducing effect due to the allulose and the diets were kept refrigerated at 4° C. during the feeding period. The animals were housed in an individual cage under constant temperature (25±2° C.), constant humidity (50±5%), and a 12 h dark-light cycle. Dietary intake was measured at a constant time every day, and the body weight was measured at a constant time every week.
# [2] = Fecal lipid excretion (triglycerides, cholesterol, free fatty acids) in C57BL/6J mice fed a high-fat diet containing vegetable lipids with or without 5% allulose for 8 weeks; settings: in words
# Source text: Twenty C57BL/6J mice (male, 4-week-old) were purchased from The Jackson Laboratory (USA) and used. After the animals were acclimated to the feeding environment with a lab-chow diet (Purina Co., USA) for 4 weeks, they were divided by a randomized block design into two groups: a negative control group without the ingestion of allulose (n=10/one kind of lipid); and a test group with the ingestion of allulose (n=10/one kind of lipid) and they were fed with the diets for 8 weeks. For the negative control group, the high-fat diet was applied to the AIN-76 diet, and the vegetable lipids [palm oil ([…], Malaysia), olive oil (CJ CheilJedang Corp., South Korea), soybean oil (CJ CheilJedang Corp., South Korea), margarine (Ottogi Foods Co., Ltd., 'Corn margarine', raw materials: consisted of 80 wt % of vegetable lipids (palm olein oil, palm stearin oil, coconut oil, corn oil)] were included. For the test group, among the ingredients of the diet for the negative control group, 5 wt % of sucrose was replaced with allulose (crystalline allulose, 98 wt % of allulose based on dry solids, CJ CheilJedang Corporation) (Table 1). All the animal experiments were carried out under the approval of the Ethics Committee for Animal Studies at Kyungpook National University, South Korea (approval no. KNU-2013-18). […] To remove the turbidity occurring from the development with 3 mM cholic acid (sodium salt), 0.5% Triton X-100 as an emulsifier was mixed with an enzyme test solution during the quantification of total cholesterol and neutral lipids. […] For the quantification of both free cholesterol (FC) and ester-type cholesterol (CE) in the feces, CE was converted by cholesterol esterase into FC and fatty acids. […] The resulting product and H2O2 which is the substrate were subjected to the reaction with peroxidase, phenol, and 4-amino-antipyrine to obtain a color developing material and the absorbance was measured at 500 nm. Quantification was carried out by comparing the measured value with the cholesterol standard curve. […]
# [3] = Fecal lipid excretion (triglycerides, cholesterol, free fatty acids) in C57BL/6J mice fed a high-fat diet containing creamer with or without 5% allulose for 8 weeks; settings: allulose consumed along with vegetable lipids in the creamer, in words
# Source text: Sixteen C57BL/6J mice (male, 4-week-old) were purchased from The Jackson Laboratory (USA) and used. After the animals were acclimated to the feeding environment with a lab-chow diet (Purina Co., USA) for 4 weeks, they were divided by a randomized block design into two groups: a negative control group without the ingestion of allulose (PR, n=8); and a test group with the ingestion of allulose (PRA, n=8) and they were fed with the diets for 8 weeks. […] To remove the turbidity occurring from the development with 3 mM cholic acid (sodium salt), 0.5% Triton X-100 as an emulsifier was mixed with an enzyme test solution during the quantification of total cholesterol and neutral lipids. […] For the quantification of both free cholesterol (FC) and ester-type cholesterol (CE) in the feces, CE was converted by cholesterol esterase into FC and fatty acids. […] The resulting product and H2O2 which is the substrate were subjected to the reaction with peroxidase, phenol, and 4-amino-antipyrine to obtain a color developing material and the absorbance was measured at 500 nm. Quantification was carried out by comparing the measured value with the cholesterol standard curve. […]
compound,measurement,setting,value
"O=C(CO)C(O)C(O)C(O)CO [allulose, Allulose (D-psicose)]",Initial body weight,[1]; HFD + margarine,21.57±
same,Body weight on 8th week,[1]; HFD + margarine,32.30±
same,Initial body weight,[1]; HFD + olive oil,21.28±
same,Body weight on 8th week,[1]; HFD + olive oil,28.87±
same,Initial body weight,[1]; HFD + palm oil,21.62±
same,Body weight on 8th week,[1]; HFD + palm oil,29.57±
same,Initial body weight,[1]; HFD + soybean oil,21.23±
same,Body weight on 8th week,[1]; HFD + soybean oil,28.84±
same,Cholesterol content in the feces / excretion of cholesterol,[2]; HFD + soybean oil with 5% allulose compared to the SO group,increased
same,Fecal excretion of lipids,"[2]; allulose consumed along with each of palm oil, olive oil, soybean oil, and margarine",promoted
same,Effect of excreting lipids compared to ingestion of allulose along with other vegetable lipids,[2]; allulose taken together with soybean oil,excellent
same,Fecal excretion of lipids,[3],promoted
